According to patent US20060106102A1, “Napththalene derivatives which inhibit the cytokine or biological activity of microphage migration inhibitory factor (mif)” (priority 2002, published 2006):

Tested on: IL-1-induced COX-2 expression
Assay: IL-1-induced COX-2 expression in S112 human dermal fibroblasts (MIF-dependent event), flow cytometry
Assay type: cell-based
Description: The activity of each compound was studied in a bioassay utilising MIF-dependent activation of human dermal fibroblasts. […] IL-1-induced COX-2 expression is therefore a MIF-dependent event. […] Prior to experimentation, cells were seeded at 10^5 cells/ml in RPMI/0.1% BSA for 18 hours. […] Cells permeabilised with 0.1% saponin were sequentially labelled with a mouse anti-human COX-2 monoclonal antibody and with sheep-anti-mouse F(ab)2 fragment labelled with fluoroscein isothiocyanate. Cellular fluorescence was determined using a flow cytometer. At least 5000 events were counted for each reading, each of which was performed in duplicate, and the results expressed in mean fluorescence intensity (MFI) after subtraction of negative control-labelled cell fluorescence. The effect of each compound was determined by subtracting the IL-1+compound-treated cell MFI from the IL-1-treated cell MFI and expressed as % inhibition. In each case the % inhibition of IL-1-induced COX2 expression is shown as the mean, or mean±SEM where results are available from multiple experiments.

**Q.** Which results are given for O=S(=O)(O)c1ccc2cc(O)c(O)cc2c1 [Compound 6, 6,7-dihydroxynaphthalene-2-sulfonic acid]?
**A.** inhibition of IL1-induced COX-2 expression, dose response (FIG. 3) (0.01, 0.1, 1.0, 10 and 50 μM): Dose-dependent inhibition; inhibition at 1 µM (Homo sapiens, Fibroblast, compound 1 uM, IL-1 0.1 ng/ml, 6 hours, S112 cells, read-out: % inhibition of IL-1-induced COX2 expression (Effect)): 16.4%; inhibition at 10 µM (Homo sapiens, Fibroblast, compound 10 uM, IL-1 0.1 ng/ml, 6 hours, S112 cells, read-out: % inhibition of IL-1-induced COX2 expression (Effect)): 22.4%; inhibition at 25 µM (Homo sapiens, Fibroblast, compound 25 uM, IL-1 0.1 ng/ml, 6 hours, S112 cells, read-out: % inhibition of IL-1-induced COX2 expression (Effect)): 21.3%; inhibition at 50 µM (Homo sapiens, Fibroblast, compound 50 uM, IL-1 0.1 ng/ml, 6 hours, S112 cells, read-out: % inhibition of IL-1-induced COX2 expression (Effect)): 25.7%; inhibition at 100 µM (Homo sapiens, Fibroblast, compound 100 uM, IL-1 0.1 ng/ml, 6 hours, S112 cells, read-out: % inhibition of IL-1-induced COX2 expression (Effect)): 24.4%; % inhibition (IL-1 induced COX-2 expression) (Table 2 experiment 1: compound alone, 50 μM): 38.0%
